Values after ≈ are worked out from the molar mass of the structure shown. Active and inactive are the calls of the source. The rule behind the calls is not given here.
How the values were obtained:
[1] = Volume of distribution at steady state in CD1 mouse at 5 umol/kg, iv and 13 umol/kg, po; format: ADME, organism-based; conditions: in vivo, read-out: Vdss
[2] = Lipophilicity, log D of the compound at pH 7.4; format: physicochemical; conditions: buffer
[3] = Oral bioavailability in Alderley Park beagle dog at 5 umol/kg; format: ADME, organism-based, Canis lupus familiaris; conditions: in vivo
[4] = Intrinsic clearance in rat cryopreserved hepatocytes assessed per 10^6 cells; format: ADME, cell-based, Hepatocyte; conditions: read-out: CLH
[5] = Clearance in Han Wistar rat at 5 umol/kg, iv and 13 umol/kg, po; format: ADME, organism-based; conditions: in vivo
[6] = Clearance in Alderley Park beagle dog at 2.5 umol/kg, iv and 5 umol/kg, po; format: ADME, organism-based, Canis lupus familiaris; conditions: in vivo
[7] = Volume of distribution at steady state in Han Wistar rat at 5 umol/kg, iv and 13 umol/kg, po; format: ADME, organism-based; conditions: in vivo, read-out: Vdss
[8] = Fraction unbound in Han Wistar rat 10% plasma by equilibrium dialysis; format: ADME, cell-free
[9] = Clearance in CD1 mouse at 5 umol/kg, iv and 13 umol/kg, po; format: ADME, organism-based; conditions: in vivo
[10] = Fraction unbound in human 10% plasma by equilibrium dialysis; format: ADME, cell-free
[11] = Intrinsic clearance in human cryopreserved hepatocytes assessed per 10^6 cells; format: ADME, cell-based, Hepatocyte; conditions: read-out: CLH
[12] = target: T1, Progesterone receptor (Homo sapiens, UniProt P06401); experiment: Agonist activity at progesterone receptor in human MCF7 cells; format: cell-based
T1 sequence (P06401 whole entry): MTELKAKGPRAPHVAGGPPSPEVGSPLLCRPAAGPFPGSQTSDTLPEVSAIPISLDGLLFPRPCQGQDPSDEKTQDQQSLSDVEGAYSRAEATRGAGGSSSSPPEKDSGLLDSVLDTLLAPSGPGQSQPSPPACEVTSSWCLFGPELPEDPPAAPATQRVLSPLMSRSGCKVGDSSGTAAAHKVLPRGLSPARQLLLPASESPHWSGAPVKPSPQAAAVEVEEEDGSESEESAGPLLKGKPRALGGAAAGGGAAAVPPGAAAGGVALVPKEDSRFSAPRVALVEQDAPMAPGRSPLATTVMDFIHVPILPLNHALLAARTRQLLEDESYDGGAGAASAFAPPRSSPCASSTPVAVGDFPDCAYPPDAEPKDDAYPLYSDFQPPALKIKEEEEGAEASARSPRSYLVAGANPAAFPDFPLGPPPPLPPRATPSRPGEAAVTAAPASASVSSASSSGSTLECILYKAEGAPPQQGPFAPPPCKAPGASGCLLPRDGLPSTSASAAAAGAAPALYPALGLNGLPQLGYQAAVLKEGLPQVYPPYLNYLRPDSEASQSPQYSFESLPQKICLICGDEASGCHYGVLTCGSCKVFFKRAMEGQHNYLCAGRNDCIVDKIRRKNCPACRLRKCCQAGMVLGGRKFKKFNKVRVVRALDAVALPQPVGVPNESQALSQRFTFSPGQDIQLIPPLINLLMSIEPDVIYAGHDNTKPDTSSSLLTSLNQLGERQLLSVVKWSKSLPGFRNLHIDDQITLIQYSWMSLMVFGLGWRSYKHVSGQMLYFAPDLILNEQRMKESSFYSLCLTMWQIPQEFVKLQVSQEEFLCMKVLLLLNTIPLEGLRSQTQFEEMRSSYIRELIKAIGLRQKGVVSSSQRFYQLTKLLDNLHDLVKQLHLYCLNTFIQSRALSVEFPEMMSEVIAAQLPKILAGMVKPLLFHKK

[13] = Thermodynamic solubility of the compound in 0.1 M phosphate buffer at pH 7.4 after 24 hrs; format: physicochemical; conditions: read-out: Therm_solubility
[14] = Oral bioavailability in CD1 mouse at 13 umol/kg; format: ADME, organism-based; conditions: in vivo
[15] = Oral bioavailability in Han Wistar rat at 13 umol/kg; format: ADME, organism-based; conditions: in vivo
[16] = Volume of distribution at steady state in Alderley Park beagle dog at 2.5 umol/kg, iv and 5 umol/kg, po; format: ADME, organism-based, Canis lupus familiaris; conditions: in vivo, read-out: Vdss
[17] = target: T2, Estrogen receptor (Homo sapiens, UniProt P03372)
T2 sequence (P03372 whole entry): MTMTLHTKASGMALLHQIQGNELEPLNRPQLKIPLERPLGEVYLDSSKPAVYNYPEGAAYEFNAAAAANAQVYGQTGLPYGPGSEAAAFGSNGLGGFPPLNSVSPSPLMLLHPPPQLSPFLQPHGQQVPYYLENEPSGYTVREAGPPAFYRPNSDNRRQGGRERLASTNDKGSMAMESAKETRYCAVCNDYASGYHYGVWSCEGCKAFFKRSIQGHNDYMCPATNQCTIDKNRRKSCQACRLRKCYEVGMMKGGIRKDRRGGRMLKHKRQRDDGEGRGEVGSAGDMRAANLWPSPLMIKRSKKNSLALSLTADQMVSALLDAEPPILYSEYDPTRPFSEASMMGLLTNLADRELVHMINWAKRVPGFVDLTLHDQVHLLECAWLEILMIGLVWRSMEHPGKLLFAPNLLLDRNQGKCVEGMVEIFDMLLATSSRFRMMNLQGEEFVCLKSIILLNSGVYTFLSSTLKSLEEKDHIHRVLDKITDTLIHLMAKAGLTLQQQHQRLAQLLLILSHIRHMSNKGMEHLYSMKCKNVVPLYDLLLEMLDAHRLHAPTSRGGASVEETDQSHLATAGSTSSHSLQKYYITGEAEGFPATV
Description: Antagonist activity at ERalpha receptor in human MCF7 cells

[18] = target: T2, Estrogen receptor; remark: listed apart in the source
Description: Binding affinity to ERalpha receptor (unknown origin)

[19] = test system: MCF7; experiment: cells; conditions: Homo sapiens, MCF7, read-out: pIC50 (converted)
Description: Antiproliferative activity against human MCF7 cells

[20] = test system: MCF7; experiment: Antitumor activity against human MCF7 cells xenografted in mouse assessed as tumor regression at 5 mg/kg, po qd; format: functional, organism-based
[21] = target: T3, Androgen receptor (Homo sapiens, UniProt P10275); experiment: Binding affinity to androgen receptor (unknown origin); conditions: read-out: IC50
T3 sequence (P10275 whole entry): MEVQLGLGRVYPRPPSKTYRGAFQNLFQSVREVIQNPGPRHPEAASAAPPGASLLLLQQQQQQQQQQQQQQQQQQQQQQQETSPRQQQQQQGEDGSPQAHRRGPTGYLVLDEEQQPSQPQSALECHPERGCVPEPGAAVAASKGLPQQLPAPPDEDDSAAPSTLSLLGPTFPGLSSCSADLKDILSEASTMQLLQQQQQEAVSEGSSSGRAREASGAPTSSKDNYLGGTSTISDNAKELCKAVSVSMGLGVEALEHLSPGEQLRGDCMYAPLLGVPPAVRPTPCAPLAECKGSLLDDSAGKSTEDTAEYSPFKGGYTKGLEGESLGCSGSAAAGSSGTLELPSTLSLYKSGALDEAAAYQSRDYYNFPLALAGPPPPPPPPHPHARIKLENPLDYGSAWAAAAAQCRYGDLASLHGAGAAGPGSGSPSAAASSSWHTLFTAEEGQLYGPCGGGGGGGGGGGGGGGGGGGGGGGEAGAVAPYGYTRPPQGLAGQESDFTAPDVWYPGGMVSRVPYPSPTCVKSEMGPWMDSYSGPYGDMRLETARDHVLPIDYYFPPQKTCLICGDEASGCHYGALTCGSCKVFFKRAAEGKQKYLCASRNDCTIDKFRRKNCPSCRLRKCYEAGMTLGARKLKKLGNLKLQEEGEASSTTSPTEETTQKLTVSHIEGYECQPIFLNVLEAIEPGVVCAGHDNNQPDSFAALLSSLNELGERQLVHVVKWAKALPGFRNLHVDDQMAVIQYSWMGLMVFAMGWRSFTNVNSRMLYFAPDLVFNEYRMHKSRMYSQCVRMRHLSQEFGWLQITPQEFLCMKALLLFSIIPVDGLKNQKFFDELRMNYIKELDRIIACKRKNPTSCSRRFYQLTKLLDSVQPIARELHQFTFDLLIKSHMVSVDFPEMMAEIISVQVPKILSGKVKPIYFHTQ

[22] = Oral bioavailability in SCID mouse at 5.6 umol/kg; format: ADME, organism-based; conditions: in vivo
[23] = Clearance in Han Wistar rat at 2.2 umol/kg, iv and […] umol/kg, po; format: ADME, organism-based; conditions: in vivo
[24] = Clearance in SCID mouse at 2.3 umol/kg, iv and 5.6 umol/kg, po; format: ADME, organism-based; conditions: in vivo
[25] = Volume of distribution at steady state in SCID mouse at 2.3 umol/kg, iv and 5.6 umol/kg, po; format: ADME, organism-based; conditions: in vivo, read-out: Vdss
[26] = target: T4, Glucocorticoid receptor (Homo sapiens, UniProt P04150); experiment: Binding affinity to glucocorticoid receptor (unknown origin); conditions: read-out: IC50
T4 sequence (P04150 whole entry): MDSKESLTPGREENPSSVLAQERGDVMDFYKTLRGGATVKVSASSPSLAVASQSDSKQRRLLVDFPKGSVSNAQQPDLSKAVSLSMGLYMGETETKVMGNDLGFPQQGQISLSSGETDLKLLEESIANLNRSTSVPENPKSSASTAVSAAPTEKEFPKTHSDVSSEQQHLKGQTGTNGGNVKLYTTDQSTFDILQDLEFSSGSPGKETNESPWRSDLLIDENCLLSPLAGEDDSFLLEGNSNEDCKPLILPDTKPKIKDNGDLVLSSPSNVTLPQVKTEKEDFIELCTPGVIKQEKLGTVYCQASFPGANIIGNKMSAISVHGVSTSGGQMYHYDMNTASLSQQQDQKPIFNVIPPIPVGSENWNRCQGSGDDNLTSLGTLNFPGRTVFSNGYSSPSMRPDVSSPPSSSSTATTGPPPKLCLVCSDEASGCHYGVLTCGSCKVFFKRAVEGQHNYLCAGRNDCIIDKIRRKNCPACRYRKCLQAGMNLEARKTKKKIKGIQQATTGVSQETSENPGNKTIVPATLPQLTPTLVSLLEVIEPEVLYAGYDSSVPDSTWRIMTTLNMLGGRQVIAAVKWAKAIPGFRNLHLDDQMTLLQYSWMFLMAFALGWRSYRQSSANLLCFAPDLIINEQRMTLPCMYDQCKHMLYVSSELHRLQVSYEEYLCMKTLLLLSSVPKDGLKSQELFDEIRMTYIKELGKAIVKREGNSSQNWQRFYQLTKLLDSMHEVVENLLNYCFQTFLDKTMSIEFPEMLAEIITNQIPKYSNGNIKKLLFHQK

[27] = Volume of distribution at steady state in Han Wistar rat at 2.2 umol/kg, iv and 4.5 umol/kg, po; format: ADME, organism-based; conditions: in vivo, read-out: Vdss
[28] = test system: MCF7; experiment: Antitumor activity against human MCF7 cells xenografted in mouse assessed as tumor growth inhibition administered orally daily once; format: functional
[29] = Oral bioavailability in Han Wistar rat at 4.5 umol/kg; format: ADME, organism-based; conditions: in vivo

| logD [2] | bioavailability [3] | hepatocyte CLint [4] | clearance [6] | fraction unbound [8] | fraction unbound [10] | hepatocyte CLint [11] | solubility thermodynamic at 24 h [13] | Vd [16] | IC50 [19] | Structure (SMILES) | further results |
| --- | --- | --- | --- | --- | --- | --- | --- | --- | --- | --- | --- |
| 2.6 | 111% | 18 µL/min/1e6 cells | 0.96 mL/min/kg | 0.0069 | 0.0051 | 40 µL/min/1e6 cells | > 1000 µM | 0.3 L/kg | 0.776 nM | CC(C)CN1[C@H](c2ccc(/C=C/C(=O)O)cc2)c2[nH]c3ccccc3c2C[C@H]1C | Vd [1]: 3.7 L/kg; clearance [5]: 6.2 mL/min/kg; Vd [7]: 1.1 L/kg; clearance [9]: 21 mL/min/kg; IC50 [12]: > 100000 nM; bioavailability [14]: 86%; bioavailability [15]: 80%; IC50 [17]: 2.09 nM; IC50 [18]: 6.46 nM |
| 2.8 | 79% | 4.2 µL/min/1e6 cells | 0.28 mL/min/kg | 0.0037 | 0.0026 | 32 µL/min/1e6 cells | 110 µM (≈ 48.7 µg/mL) | 2.2 L/kg | 0.0398 nM | C[C@@H]1Cc2c([nH]c3ccccc23)[C@@H](c2c(F)cc(/C=C/C(=O)O)cc2F)N1CC(C)(C)F [AZD-9496] | Activity [20]: Active; IC50 [21]: 30000 nM; bioavailability [22]: 128%; clearance [23]: 1 mL/min/kg; clearance [24]: 43 mL/min/kg; Vd [25]: 2.2 L/kg; IC50 [26]: 9200 nM; Vd [27]: 0.43 L/kg; growth inhibition (GI) [28]: Dose-dependent effect; bioavailability [29]: 63% |

From ChEMBL document CHEMBL3621041, “Optimization of a Novel Binding Motif to (E)-3-(3,5-Difluoro-4-((1R,3R)-2-(2-fluoro-2-methylpropyl)-3-methyl-2,3,4,9-tetrahydro-1H-pyrido[3,4-b]indol-1-yl)phenyl)acrylic Acid (AZD9496), a Potent and Orally Bioavailable Selective Estrogen Receptor Downregulator and Antagonist” (J Med Chem, 2015)
